The values below come from US10493077B2, “Fused imidazo-piperidine JAK inhibitor compound” (THERAVANCE BIOPHARMA R&D IP, LLC, priority 2017, dated 2019).

Molecules are shown by their SMILES.

For one series, the target named is T1, SYK (Homo sapiens, UniProt P43405).
T1 construct: made in house; host or cells: T7 phage in E. coli (BL21-derived) or HEK-293
Nature of the series: Kinome screen, SYK. In kind it is binding. The conditions noted are these: screened at 1 μM. How it is done: (§1) Kinase-tagged T7 phage strains were grown in parallel in 24-well blocks in an E. coli host derived from the BL21 strain. E. coli were grown to log-phase and infected with T7 phage from a frozen stock (multiplicity of infection=0.4) and incubated with shaking at 32° C. until lysis (90-150 minutes). The lysates were centrifuged (6,000×g) and filtered (0.2 μm) to remove cell debris. The remaining kinases were produced in HEK-293 cells and subsequently tagged with DNA for qPCR detection.
(§2) Streptavidin-coated magnetic beads were treated with biotinylated small molecule ligands for 30 minutes at room temperature to generate affinity resins for kinase assays. The liganded beads were blocked with excess biotin and washed with blocking buffer (SeaBlock (Pierce), 1% BSA, 0.05% Tween 20, 1 mM DTT) to remove unbound ligand and to reduce non-specific phage binding. […] Test compounds were prepared as 40× stocks in 100% DMSO and directly diluted into the assay. All reactions were performed in polypropylene 384-well plates in a final volume of 0.04 ml. […] The beads were then re-suspended in elution buffer (1×PBS, 0.05% Tween 20, 0.5 μM non-biotinylated affinity ligand) and incubated at room temperature with shaking for 30 minutes. The kinase concentration in the eluates was measured by qPCR.

For series [1], the system named is BEAS-2B human lung epithelial cells. Nature of the series: CellTiter-Glo cell viability/cytotoxicity assay. In kind it is cell-based. Conditions: BEAS-2B cells, 48 h, concentration at 15% inhibition threshold. As to the method: A CellTiter-Glo luminescent cell viability/cytotoxicity assay was carried out in BEAS-2B human lung epithelial cells (ATCC) under the normal growth condition.
Cells were grown at 37° C. in a 5% CO2 humidified incubator in 50% DMEM/50% F-12 medium (Life Technologies) supplemented with 10% FBS (Hyclone), 100 U/mL penicillin, 100 μg/mL streptomycin (Life Technologies), and 2 mM GlutaMAX (Life Technologies). On day 1 of the assay, cells were seeded at a 500 cells/well density in white 384-well tissue culture plates (Corning) with 25 μL medium, and were allowed to adhere overnight in the incubator. On day 2 of the assay, 5 μL of medium containing dose-responses of test compounds was added, and incubated at 37° C. for 48 h. 30 μL of CellTiter-Glo detection solution (Promega) was subsequently added, mixed on an orbital shaker for 5 min, and incubated for additional 10 min before being read on the EnVision reader. Luminescence signals were recorded and percent DMSO control values were calculated.
For dose-response analysis, percent DMSO control data were plotted vs. compound concentrations to derive dose-response curves by line connecting each data point. The concentration at which each curve crosses the 15% inhibition threshold is defined as CC15.

A further series addresses T2, CDK7 (Homo sapiens, UniProt P50613).
T2 construct: made in house; host or cells: T7 phage in E. coli (BL21-derived) or HEK-293
Nature of the series: Kinome screen, CDK7. In kind it is binding. Conditions: screened at 1 μM. How it is done:
as §1, §2

For a further series, the target named is T3, JAK2 (Homo sapiens, UniProt O60674).
T3 construct: GST; purchased Life Technologies
Nature of the series: LanthaScreen JAK biochemical assay, JAK2. The conditions noted are these: read-out: JAK 2 pKi (converted). As to the method:
A panel of four LanthaScreen JAK biochemical assays (JAK1, 2, 3 and Tyk2) were carried in a common kinase reaction buffer (50 mM HEPES, pH 7.5, 0.01% Brij-35, 10 mM MgCl2, and 1 mM EGTA). Recombinant GST-tagged JAK enzymes and a GFP-tagged STAT1 peptide substrate were obtained from Life Technologies.
Serially diluted compound was pre-incubated with each of the four JAK enzymes and the substrate in white 384-well microplates (Corning) at ambient temperature for 1 h. ATP was subsequently added to initiate the kinase reactions in 10 μL total volume, with 1% DMSO. […] The plates were allowed to incubate at ambient temperature for 1 h before being read on the EnVision reader (Perkin Elmer). Emission ratio signals (520 nm/495 nm) were recorded and utilized to calculate the percent inhibition values based on DMSO and background controls.
For dose-response analysis, percent inhibition data were plotted vs. compound concentrations, and IC50 values were determined from a 4-parameter robust fit model with the Prism software (GraphPad Software). Results were expressed as pIC50 (negative logarithm of IC50) and subsequently converted to pKi (negative logarithm of dissociation constant, Ki) using the Cheng-Prusoff equation.

For a further series, the target named is T4, PLK4 (Homo sapiens, UniProt O00444).
T4 construct: made in house; host or cells: T7 phage in E. coli (BL21-derived) or HEK-293
Nature of the series: Kinome screen, PLK4. It counts as binding. Conditions: screened at 1 μM. How it is done: as §1, §2

Series [2] concerns IL-2 stimulated pSTAT5 in CD4+ T cells. Nature of the series: Cellular JAK potency assay: inhibition of IL-2 stimulated pSTAT5 in CD4+ T cells. It counts as cell-based. Conditions: 0.5 h; CD4+ T cells in human PBMCs, 30 min stimulation; read-out: pIC50, inhibition of IL-2 stimulated pSTAT5 (converted). How it is done: The potency of the test compound for inhibition of interleukin-2 (IL-2)/anti-CD3 stimulated STAT5 phosphorylation was measured in CD4-positive (CD4+) T cells in human peripheral blood mononuclear cells (PBMCs) isolated from human whole blood (Stanford Blood Center) using flow cytometry. Because IL-2 signals through JAK, this assay provides a measure of JAK cellular potency.
CD4+ T cells were identified using a […] (PE) conjugated anti-CD4 antibody (Clone RPA-T4, BD Biosciences), while an Alexa Fluor 647 conjugated anti-pSTAT5 antibody (pY694, Clone 47, BD Biosciences) was used to detect STAT5 phosphorylation. […]
(2) After cytokine stimulation, cells were fixed with pre warmed fix solution (200 μL; BD Biosciences) for 10 min at 37° C., 5% CO2, washed twice with DPBS buffer (1 mL, Life Technologies), and resuspended in ice cold Perm Buffer III (1000 μL, BD Biosciences) for 30 min at 4° C. […] After incubation, cells were washed twice in FACS buffer before being analyzed using a LSRII flow cytometer (BD Biosciences). To determine the inhibitory potency of the test compound in response to IL-2/anti-CD3, the median fluorescent intensity (MFI) of pSTAT5 was measured in CD4+ T cells. IC50 values were determined from analysis of the inhibition curves of MFI vs compound concentration. Data are expressed as pIC50 (negative decadic logarithm IC50) values.

T3 sequence (O60674 whole entry): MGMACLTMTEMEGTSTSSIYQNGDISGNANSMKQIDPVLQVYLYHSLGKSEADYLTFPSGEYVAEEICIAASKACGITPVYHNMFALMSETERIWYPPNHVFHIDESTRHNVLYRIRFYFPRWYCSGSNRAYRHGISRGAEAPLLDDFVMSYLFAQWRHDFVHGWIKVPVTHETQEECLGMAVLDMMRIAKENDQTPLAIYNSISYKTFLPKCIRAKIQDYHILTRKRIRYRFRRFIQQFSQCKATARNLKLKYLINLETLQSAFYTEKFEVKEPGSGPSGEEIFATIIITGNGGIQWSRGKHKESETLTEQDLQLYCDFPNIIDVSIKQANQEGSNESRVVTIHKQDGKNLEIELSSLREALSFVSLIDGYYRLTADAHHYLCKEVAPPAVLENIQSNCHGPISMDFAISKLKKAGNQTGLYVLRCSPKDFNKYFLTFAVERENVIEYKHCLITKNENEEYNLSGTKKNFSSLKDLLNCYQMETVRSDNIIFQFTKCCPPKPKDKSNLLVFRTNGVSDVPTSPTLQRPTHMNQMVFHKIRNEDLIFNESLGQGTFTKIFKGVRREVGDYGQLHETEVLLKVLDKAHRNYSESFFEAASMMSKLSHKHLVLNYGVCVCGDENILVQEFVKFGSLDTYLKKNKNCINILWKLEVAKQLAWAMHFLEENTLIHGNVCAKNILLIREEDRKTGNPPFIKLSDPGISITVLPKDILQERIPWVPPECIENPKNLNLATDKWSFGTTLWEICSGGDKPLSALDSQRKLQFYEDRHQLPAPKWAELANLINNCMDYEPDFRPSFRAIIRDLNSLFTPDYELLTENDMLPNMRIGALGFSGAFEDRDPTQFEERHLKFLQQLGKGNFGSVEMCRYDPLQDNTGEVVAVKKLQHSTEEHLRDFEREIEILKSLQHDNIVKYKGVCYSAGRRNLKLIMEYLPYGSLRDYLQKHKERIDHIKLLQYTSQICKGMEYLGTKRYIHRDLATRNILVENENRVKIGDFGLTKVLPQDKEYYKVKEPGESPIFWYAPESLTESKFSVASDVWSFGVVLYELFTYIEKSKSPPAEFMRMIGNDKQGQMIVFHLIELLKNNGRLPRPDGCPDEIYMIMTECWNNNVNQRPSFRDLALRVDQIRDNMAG
T2 sequence (P50613 whole entry): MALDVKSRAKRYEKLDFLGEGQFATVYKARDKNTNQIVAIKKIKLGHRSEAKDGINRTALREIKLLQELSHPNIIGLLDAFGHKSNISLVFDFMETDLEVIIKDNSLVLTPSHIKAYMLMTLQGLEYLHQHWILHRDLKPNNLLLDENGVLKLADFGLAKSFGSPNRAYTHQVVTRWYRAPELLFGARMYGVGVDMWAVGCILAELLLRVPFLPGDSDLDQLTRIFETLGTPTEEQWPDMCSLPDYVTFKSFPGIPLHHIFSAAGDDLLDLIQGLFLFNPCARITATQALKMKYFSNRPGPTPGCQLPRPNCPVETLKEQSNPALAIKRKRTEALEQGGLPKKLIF
T4 sequence (O00444 whole entry): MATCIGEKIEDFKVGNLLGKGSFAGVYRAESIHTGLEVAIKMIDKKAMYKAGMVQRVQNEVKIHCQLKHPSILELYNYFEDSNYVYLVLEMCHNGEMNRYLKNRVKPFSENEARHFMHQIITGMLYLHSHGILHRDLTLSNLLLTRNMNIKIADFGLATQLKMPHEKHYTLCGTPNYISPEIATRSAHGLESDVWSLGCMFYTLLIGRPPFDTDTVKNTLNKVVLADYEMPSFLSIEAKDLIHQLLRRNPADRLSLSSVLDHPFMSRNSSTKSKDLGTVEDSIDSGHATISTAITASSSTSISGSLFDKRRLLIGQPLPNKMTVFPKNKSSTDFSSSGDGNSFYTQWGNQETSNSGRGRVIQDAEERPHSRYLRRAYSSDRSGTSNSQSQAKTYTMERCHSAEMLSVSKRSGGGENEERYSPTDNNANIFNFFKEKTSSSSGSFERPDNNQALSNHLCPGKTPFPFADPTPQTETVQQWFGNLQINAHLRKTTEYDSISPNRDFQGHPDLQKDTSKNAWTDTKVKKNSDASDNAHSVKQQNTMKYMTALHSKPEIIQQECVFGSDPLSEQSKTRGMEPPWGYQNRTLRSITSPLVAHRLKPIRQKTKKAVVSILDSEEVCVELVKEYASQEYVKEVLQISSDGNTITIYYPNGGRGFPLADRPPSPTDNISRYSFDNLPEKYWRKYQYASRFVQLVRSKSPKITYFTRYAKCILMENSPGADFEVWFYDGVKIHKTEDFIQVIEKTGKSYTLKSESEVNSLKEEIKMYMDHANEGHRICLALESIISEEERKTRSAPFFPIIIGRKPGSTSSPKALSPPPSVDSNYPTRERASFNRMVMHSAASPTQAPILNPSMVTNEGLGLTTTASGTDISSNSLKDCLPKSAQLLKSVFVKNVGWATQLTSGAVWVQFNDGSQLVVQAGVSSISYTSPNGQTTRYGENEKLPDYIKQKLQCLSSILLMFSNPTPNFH

For the molecule `CCc1cc(O)c(F)cc1-c1cc(F)c2c(-c3nc4c([nH]3)CCN(C(=O)CN3CCOCC3)C4)n[nH]c2c1` [Compound 1, 1-(2-(6-(2-ethyl-5-fluoro-4-hydroxyphenyl)-4-fluoro-1H-indazol-3-yl)-1,4,6,7-tetrahydro-5H-imidazo[4,5-c]pyridin-5-yl)-2-morpholinoethan-1-one], the values for the inhibition at 1 µM against SYK, against CDK7 and on PLK4 were 46%, 74% and 58%, respectively. Moreover, the CC15 in series [1] amounted to 3160 nM. The Ki on JAK2 was 0.0251 nM. Besides, the IC50 in series [2] is ~20 nM.
